Results as given in PMC3933419, “Synthesis and Properties of a Selective Inhibitor of Homeodomain–Interacting Protein Kinase 2 (HIPK2)” (PLoS ONE, 2014).

What was measured:
Assay in all cases: Kinase panel selectivity profiling
Assay type in all cases: biochemical
HER4 = HER4 (Homo sapiens, UniProt Q15303); details: TBID 1 μM, 125 kinase panel, read-out: % activity of the enzyme
Excerpt: (§1) The source of HIPK2 and of all of the other protein kinases used for specificity assays is as described elsewhere.
(§2) Conditions for the activity assays of all other protein kinases tested in selectivity experiments are as described or referenced in [9].

DYRK1A = DYRK1A (Homo sapiens, UniProt Q13627)
Excerpt: as §1, §2

CHK1 = CHK1 (Homo sapiens, UniProt O14757); details: TBID 1 μM, 125 kinase panel, read-out: % activity of the enzyme
Excerpt: as §1, §2

Aurora A = Aurora A (Homo sapiens, UniProt O14965); details: TBID 1 μM, 125 kinase panel, read-out: % activity of the enzyme
Excerpt: as §1, §2

PIM1 = molecular target: T1, PIM1 (Homo sapiens, UniProt P11309)
T1 construct: The source of HIPK2 and of all of the other protein kinases used for specificity assays is as described elsewhere
T1 sequence (P11309 whole entry, species assumed): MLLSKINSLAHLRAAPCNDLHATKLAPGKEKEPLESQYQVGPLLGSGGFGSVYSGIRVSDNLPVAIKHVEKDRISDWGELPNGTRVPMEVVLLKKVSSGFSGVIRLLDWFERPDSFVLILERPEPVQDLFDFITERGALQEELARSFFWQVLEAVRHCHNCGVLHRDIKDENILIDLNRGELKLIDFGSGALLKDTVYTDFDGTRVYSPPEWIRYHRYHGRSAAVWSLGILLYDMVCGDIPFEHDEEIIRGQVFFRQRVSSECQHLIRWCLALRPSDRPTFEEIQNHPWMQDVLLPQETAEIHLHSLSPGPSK
Excerpt: as §1, §2

MAPKAP-K2 = MAPKAP-K2 (Homo sapiens, UniProt P49137); details: TBID 1 μM, 125 kinase panel, read-out: % activity of the enzyme
Excerpt: as §1, §2

LKB1 = LKB1 (Homo sapiens, UniProt Q15831); details: TBID 1 μM, 125 kinase panel, read-out: % activity of the enzyme
Excerpt: as §1, §2

MARK2 = MARK2 (Homo sapiens, UniProt Q7KZI7); details: TBID 1 μM, 125 kinase panel, read-out: % activity of the enzyme
Excerpt: as §1, §2

MLK3 = MLK3 (Homo sapiens, UniProt Q16584); details: TBID 1 μM, 125 kinase panel, read-out: % activity of the enzyme
Excerpt: as §1, §2

MKK1 = MKK1 (Homo sapiens, UniProt Q02750); details: TBID 1 μM, 125 kinase panel, read-out: % activity of the enzyme
Excerpt: as §1, §2

PRK2 = PRK2 (Homo sapiens, UniProt Q16513); details: TBID 1 μM, 125 kinase panel, read-out: % activity of the enzyme
Chain of PRK2 (Q16513 whole entry): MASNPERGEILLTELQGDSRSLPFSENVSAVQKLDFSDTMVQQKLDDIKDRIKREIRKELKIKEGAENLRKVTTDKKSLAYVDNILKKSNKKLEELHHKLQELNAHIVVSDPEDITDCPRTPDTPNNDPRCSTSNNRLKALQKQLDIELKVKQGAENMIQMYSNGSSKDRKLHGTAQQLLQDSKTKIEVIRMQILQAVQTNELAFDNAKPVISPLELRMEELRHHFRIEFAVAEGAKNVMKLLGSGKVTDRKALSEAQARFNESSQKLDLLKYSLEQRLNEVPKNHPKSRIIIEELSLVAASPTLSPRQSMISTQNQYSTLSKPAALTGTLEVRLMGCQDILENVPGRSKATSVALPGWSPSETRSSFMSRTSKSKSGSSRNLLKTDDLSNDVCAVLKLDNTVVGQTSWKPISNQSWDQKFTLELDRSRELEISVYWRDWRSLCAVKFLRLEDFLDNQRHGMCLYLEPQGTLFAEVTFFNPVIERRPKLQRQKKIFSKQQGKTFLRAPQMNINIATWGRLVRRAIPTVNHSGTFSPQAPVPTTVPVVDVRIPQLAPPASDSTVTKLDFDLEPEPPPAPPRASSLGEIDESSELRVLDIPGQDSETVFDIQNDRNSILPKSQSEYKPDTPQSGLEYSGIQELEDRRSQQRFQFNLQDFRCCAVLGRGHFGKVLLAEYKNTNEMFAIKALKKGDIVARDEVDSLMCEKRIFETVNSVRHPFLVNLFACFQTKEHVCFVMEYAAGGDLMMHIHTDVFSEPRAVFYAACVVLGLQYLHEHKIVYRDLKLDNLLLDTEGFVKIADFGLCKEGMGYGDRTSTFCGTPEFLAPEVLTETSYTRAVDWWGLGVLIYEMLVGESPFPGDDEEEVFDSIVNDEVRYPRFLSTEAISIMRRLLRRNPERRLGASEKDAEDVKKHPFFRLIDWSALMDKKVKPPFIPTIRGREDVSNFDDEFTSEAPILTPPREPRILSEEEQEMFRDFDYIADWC
Excerpt: as §1, §2

MARK4 = MARK4 (Homo sapiens, UniProt Q96L34); details: TBID 1 μM, 125 kinase panel, read-out: % activity of the enzyme
Excerpt: as §1, §2

DYRK3 = DYRK3 (Homo sapiens, UniProt O43781); details: TBID 1 μM, 125 kinase panel, read-out: % activity of the enzyme
Excerpt: as §1, §2

BTK = BTK (Homo sapiens, UniProt Q06187)
Chain of BTK (Q06187 whole entry): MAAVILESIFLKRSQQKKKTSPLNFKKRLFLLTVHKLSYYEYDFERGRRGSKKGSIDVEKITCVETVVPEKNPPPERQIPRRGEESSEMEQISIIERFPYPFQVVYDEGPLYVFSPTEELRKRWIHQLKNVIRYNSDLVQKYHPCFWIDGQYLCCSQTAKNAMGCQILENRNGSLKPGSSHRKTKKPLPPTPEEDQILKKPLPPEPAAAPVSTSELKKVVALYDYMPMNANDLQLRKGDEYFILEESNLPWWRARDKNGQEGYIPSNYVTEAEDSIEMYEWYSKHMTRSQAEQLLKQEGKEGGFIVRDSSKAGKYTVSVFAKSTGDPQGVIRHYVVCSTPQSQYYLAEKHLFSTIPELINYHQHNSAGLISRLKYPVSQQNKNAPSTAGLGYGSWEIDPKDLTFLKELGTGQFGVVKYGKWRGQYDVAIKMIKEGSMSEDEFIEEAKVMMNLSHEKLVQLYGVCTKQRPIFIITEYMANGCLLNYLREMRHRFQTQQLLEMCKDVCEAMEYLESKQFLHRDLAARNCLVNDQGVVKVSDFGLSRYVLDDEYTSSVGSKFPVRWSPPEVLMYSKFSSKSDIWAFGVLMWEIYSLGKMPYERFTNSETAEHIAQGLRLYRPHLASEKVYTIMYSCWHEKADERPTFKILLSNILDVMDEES
Excerpt: as §1, §2

S6K1 = S6K1 (Homo sapiens, UniProt P23443); details: TBID 1 μM, 125 kinase panel, read-out: % activity of the enzyme
Excerpt: as §1, §2

TBK1 = TBK1 (Homo sapiens, UniProt Q9UHD2); details: TBID 1 μM, 125 kinase panel, read-out: % activity of the enzyme
Excerpt: as §1, §2

SmMLCK = SmMLCK (Homo sapiens, UniProt Q15746); details: TBID 1 μM, 125 kinase panel, read-out: % activity of the enzyme
Chain of SmMLCK (Q15746 923-1914): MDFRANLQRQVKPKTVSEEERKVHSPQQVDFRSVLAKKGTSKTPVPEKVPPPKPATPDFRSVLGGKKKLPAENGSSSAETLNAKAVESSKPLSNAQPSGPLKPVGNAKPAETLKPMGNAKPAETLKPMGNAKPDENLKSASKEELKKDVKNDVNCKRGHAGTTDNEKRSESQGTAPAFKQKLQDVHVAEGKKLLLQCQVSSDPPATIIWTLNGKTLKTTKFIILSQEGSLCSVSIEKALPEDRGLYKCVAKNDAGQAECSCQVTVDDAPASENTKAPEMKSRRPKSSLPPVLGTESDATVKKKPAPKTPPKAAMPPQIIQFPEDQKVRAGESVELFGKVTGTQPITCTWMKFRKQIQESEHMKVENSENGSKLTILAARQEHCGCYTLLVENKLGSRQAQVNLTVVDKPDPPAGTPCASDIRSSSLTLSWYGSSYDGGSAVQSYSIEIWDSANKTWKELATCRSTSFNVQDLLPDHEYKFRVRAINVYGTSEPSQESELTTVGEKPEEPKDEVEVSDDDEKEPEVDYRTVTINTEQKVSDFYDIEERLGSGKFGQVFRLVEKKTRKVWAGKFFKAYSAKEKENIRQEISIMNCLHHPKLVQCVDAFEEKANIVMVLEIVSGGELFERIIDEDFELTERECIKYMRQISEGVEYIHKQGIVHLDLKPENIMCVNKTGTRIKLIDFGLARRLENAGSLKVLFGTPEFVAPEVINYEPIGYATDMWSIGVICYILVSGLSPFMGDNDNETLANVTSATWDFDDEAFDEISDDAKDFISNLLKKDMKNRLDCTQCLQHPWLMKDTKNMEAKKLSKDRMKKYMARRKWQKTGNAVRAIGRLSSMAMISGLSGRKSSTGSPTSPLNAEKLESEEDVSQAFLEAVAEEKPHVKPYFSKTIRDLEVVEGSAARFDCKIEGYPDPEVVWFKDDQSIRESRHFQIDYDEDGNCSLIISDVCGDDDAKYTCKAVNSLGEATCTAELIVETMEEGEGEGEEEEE
Excerpt: as §1, §2

TAO1 = TAO1 (Homo sapiens, UniProt Q7L7X3); details: TBID 1 μM, 125 kinase panel, read-out: % activity of the enzyme
Excerpt: as §1, §2

MSK1 = MSK1 (Homo sapiens, UniProt O75582); details: TBID 1 μM, 125 kinase panel, read-out: % activity of the enzyme
Chain of MSK1 (O75582 whole entry): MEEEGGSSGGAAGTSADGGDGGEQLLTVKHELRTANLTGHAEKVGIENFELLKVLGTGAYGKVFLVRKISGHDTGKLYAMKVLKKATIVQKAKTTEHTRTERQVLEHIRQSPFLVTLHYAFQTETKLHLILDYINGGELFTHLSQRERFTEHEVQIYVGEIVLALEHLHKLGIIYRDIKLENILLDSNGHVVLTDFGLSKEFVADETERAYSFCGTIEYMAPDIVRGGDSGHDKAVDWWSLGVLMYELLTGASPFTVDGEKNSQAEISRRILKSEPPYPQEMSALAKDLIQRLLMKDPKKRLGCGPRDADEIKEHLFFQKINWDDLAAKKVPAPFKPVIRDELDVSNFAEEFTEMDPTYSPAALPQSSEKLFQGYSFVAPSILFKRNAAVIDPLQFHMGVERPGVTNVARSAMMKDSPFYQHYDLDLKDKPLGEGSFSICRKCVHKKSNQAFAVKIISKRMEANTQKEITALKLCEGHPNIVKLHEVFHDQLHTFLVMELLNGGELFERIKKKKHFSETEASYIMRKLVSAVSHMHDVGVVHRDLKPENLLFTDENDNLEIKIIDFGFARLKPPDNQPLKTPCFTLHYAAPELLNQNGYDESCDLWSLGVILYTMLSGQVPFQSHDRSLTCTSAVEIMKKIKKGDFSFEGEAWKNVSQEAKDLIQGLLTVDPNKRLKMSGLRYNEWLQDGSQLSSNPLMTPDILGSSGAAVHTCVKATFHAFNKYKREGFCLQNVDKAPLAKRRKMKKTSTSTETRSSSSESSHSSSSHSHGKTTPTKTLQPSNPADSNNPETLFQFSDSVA
Excerpt: as §1, §2

EPH-B4 = EPH-B4 (Homo sapiens, UniProt P54760); details: TBID 1 μM, 125 kinase panel, read-out: % activity of the enzyme
Excerpt: as §1, §2

EPH-A4 = EPH-A4 (Homo sapiens, UniProt P54764); details: TBID 1 μM, 125 kinase panel, read-out: % activity of the enzyme
Excerpt: as §1, §2

MARK1 = MARK1 (Homo sapiens, UniProt Q9P0L2); details: TBID 1 μM, 125 kinase panel, read-out: % activity of the enzyme
Excerpt: as §1, §2

MEKK1 = MEKK1 (Homo sapiens, UniProt Q13233); details: TBID 1 μM, 125 kinase panel, read-out: % activity of the enzyme
Excerpt: as §1, §2

MARK3 = MARK3 (Homo sapiens, UniProt P27448); details: TBID 1 μM, 125 kinase panel, read-out: % activity of the enzyme
Excerpt: as §1, §2

JAK2 = JAK2 (Homo sapiens, UniProt O60674); details: TBID 1 μM, 125 kinase panel, read-out: % activity of the enzyme
Excerpt: as §1, §2

JNK1 = JNK1 (Homo sapiens, UniProt P45983); details: TBID 1 μM, 125 kinase panel, read-out: % activity of the enzyme
Excerpt: as §1, §2

PKD1 = PKD1 (Homo sapiens, UniProt Q15139); details: TBID 1 μM, 125 kinase panel, read-out: % activity of the enzyme
Excerpt: as §1, §2

PKBb = PKBb (Homo sapiens, UniProt P31751); details: TBID 1 μM, 125 kinase panel, read-out: % activity of the enzyme
Chain of PKBb (P31751 whole entry): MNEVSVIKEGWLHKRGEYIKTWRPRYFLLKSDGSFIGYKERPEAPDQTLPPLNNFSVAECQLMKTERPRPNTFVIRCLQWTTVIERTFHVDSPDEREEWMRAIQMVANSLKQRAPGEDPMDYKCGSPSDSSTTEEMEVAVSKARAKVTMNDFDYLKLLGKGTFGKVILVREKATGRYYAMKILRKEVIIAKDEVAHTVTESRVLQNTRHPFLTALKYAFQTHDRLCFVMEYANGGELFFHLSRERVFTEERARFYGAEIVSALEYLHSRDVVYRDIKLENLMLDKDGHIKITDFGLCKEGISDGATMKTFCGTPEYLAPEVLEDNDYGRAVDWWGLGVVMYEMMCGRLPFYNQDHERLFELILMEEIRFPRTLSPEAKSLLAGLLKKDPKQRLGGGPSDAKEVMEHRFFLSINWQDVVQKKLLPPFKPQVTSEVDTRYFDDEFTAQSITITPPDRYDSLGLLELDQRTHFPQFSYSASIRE
Excerpt: as §1, §2

EPH-A2 = EPH-A2 (Homo sapiens, UniProt P29317); details: TBID 1 μM, 125 kinase panel, read-out: % activity of the enzyme
Excerpt: as §1, §2

SYK = SYK (Homo sapiens, UniProt P43405); details: TBID 1 μM, 125 kinase panel, read-out: % activity of the enzyme
Excerpt: as §1, §2

MKK6 = MKK6 (Homo sapiens, UniProt P52564); details: TBID 1 μM, 125 kinase panel, read-out: % activity of the enzyme
Excerpt: as §1, §2

RSK2 = RSK2 (Homo sapiens, UniProt P51812); details: TBID 1 μM, 125 kinase panel, read-out: % activity of the enzyme
Excerpt: as §1, §2

IRAK1 = IRAK1 (Homo sapiens, UniProt P51617); details: TBID 1 μM, 125 kinase panel, read-out: % activity of the enzyme
Excerpt: as §1, §2

p38d MAPK = p38d MAPK (Homo sapiens, UniProt O15264); details: TBID 1 μM, 125 kinase panel, read-out: % activity of the enzyme
Chain of p38d MAPK (O15264 whole entry): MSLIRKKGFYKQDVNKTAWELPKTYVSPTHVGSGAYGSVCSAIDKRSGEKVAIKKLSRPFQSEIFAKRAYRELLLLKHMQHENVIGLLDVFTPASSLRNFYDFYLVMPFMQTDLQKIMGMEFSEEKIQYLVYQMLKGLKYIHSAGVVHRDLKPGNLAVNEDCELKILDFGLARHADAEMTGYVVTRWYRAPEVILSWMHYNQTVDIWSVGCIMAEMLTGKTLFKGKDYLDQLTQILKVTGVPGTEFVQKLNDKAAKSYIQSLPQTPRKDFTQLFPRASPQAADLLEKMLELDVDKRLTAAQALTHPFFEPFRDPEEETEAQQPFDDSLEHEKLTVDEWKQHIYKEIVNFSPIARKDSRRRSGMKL
Excerpt: as §1, §2

MST4 = MST4 (Homo sapiens, UniProt Q9P289); details: TBID 1 μM, 125 kinase panel, read-out: % activity of the enzyme
Excerpt: as §1, §2

MNK1 = MNK1 (Homo sapiens, UniProt Q9BUB5); details: TBID 1 μM, 125 kinase panel, read-out: % activity of the enzyme
Excerpt: as §1, §2

BRSK1 = BRSK1 (Homo sapiens, UniProt Q8TDC3); details: TBID 1 μM, 125 kinase panel, read-out: % activity of the enzyme
Excerpt: as §1, §2

IR = IR (Homo sapiens, UniProt P06213); details: TBID 1 μM, 125 kinase panel, read-out: % activity of the enzyme
Excerpt: as §1, §2

ABL = ABL (Homo sapiens, UniProt P00519); details: TBID 1 μM, 125 kinase panel, read-out: % activity of the enzyme
Excerpt: as §1, §2

BRK = BRK (Homo sapiens, UniProt Q13882); details: TBID 1 μM, 125 kinase panel, read-out: % activity of the enzyme
Chain of BRK (Q13882 whole entry): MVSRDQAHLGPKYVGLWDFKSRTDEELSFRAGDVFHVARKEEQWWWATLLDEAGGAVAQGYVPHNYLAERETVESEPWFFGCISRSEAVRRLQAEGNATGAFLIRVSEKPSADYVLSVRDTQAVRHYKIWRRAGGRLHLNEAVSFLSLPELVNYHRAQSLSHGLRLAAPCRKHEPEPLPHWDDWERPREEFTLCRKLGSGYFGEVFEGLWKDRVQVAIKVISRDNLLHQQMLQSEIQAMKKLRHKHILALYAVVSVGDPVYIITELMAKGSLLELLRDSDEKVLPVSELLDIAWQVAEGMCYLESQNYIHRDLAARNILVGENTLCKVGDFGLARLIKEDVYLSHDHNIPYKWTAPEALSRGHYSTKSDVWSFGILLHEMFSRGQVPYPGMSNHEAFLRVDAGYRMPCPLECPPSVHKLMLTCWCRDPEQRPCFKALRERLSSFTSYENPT
Excerpt: as §1, §2

AMPK = details: TBID 1 μM, 125 kinase panel
Excerpt: as §1, §2

[1] = 10 µM TBID, panel of 76 protein kinases, read-out: residual activity
[2] = TBID 1 μM, 125 kinase panel, read-out: % activity of the enzyme

Which results are given for `O=C1c2c(Br)c(Br)c(Br)c(Br)c2C(=O)N1c1ncc[nH]1` [TBID, 4,5,6,7-Tetrabromo-2-(1H-imidazol-2-yl)isoindoline-1,3-dione]?
activity at 1 µM (HER4): 91%; remaining activity at 10 µM (DYRK1A; [1]): 72%; activity at 1 µM (DYRK1A; [2]): 104%; activity at 1 µM (CHK1): 102%; activity at 1 µM (Aurora A): 101%; residual activity (PIM1; 10 µM TBID, panel of 76 protein kinases): entirely unaffected; activity at 1 µM (PIM1; [2]): 104%; activity at 1 µM (MAPKAP-K2): 119%; activity at 1 µM (LKB1): 102%; activity at 1 µM (MARK2): 100%; activity at 1 µM (MLK3): 97%; activity at 1 µM (MKK1): 115%; activity at 1 µM (PRK2): 96%; activity at 1 µM (MARK4): 95%; activity at 1 µM (DYRK3): 101%; remaining activity at 10 µM (BTK; [1]): 29%; activity at 1 µM (BTK; [2]): 84%; activity at 1 µM (S6K1): 94%; activity at 1 µM (TBK1): 108%; activity at 1 µM (SmMLCK): 103%; activity at 1 µM (TAO1): 110%; activity at 1 µM (MSK1): 89%; activity at 1 µM (EPH-B4): 114%; activity at 1 µM (EPH-A4): 100%; activity at 1 µM (MARK1): 102%; activity at 1 µM (MEKK1): 106%; activity at 1 µM (MARK3): 115%; activity at 1 µM (JAK2): 114%; activity at 1 µM (JNK1): 106%; activity at 1 µM (PKD1): 98%; activity at 1 µM (PKBb): 104%; activity at 1 µM (EPH-A2): 89%; activity at 1 µM (SYK): 108%; activity at 1 µM (MKK6): 90%; activity at 1 µM (RSK2): 101%; activity at 1 µM (IRAK1): 82%; activity at 1 µM (p38d MAPK): 106%; activity at 1 µM (MST4): 108%; activity at 1 µM (MNK1): 106%; activity at 1 µM (BRSK1): 110%; activity at 1 µM (IR): 101%; activity at 1 µM (ABL): 99%; activity at 1 µM (BRK): 103%; % activity of the enzyme (AMPK): 87%
